Reference: paper PMC5384962, “First-in-human studies of seletalisib, an orally bioavailable small-molecule PI3Kδ inhibitor for the treatment of immune and inflammatory diseases” (European Journal of Clinical Pharmacology, 2017)
Read-outs that look alike come from different tables or passages of the source.

Assay: Study-1 Part-A single ascending dose pharmacokinetics (plasma and urine)
Assay type: in vivo, human
Conditions: for Fe: fraction excreted in urine; for AUC / AUC(0-t) / Cmax / Vd/F / half-life / Tmax / CL renal: human, oral; for AUC / AUC(0-t) / Cmax / Vd/F / half-life / Tmax: plasma; for Vd/F: read-out: Vz/F; for CL renal: urine and plasma; for Ae(0–t): urine
From the text: These were phase I, randomised, double-blind, placebo-controlled studies designed to evaluate the safety, tolerability, PK and PD profiles of seletalisib following oral administration of single ascending doses and multiple ascending doses. Study-1 was a first-in-human, double-blind (sponsor-, investigator- and subject-blind) study that had two parts: Part-A evaluated seletalisib (single ascending doses) in healthy adults (including evaluation of food effects; Table 1); Part-B evaluated seletalisib (multiple ascending doses) in healthy adults and subjects with mild-to-moderate psoriasis. Study-2 was also a double-blind study of seletalisib (single and multiple ascending doses) in healthy subjects, which investigated higher doses.
Plasma concentrations of seletalisib were measured by high-performance liquid chromatography with tandem mass spectrometry (see Online Resource S1 for further details). The following PK parameters were determined in each study: AUC for seletalisib, maximum observed plasma concentration of seletalisib after a single dose (Cmax) and at steady-state (Cmaxss), time of occurrence of Cmax (tmax, obtained directly from the observed plasma concentration-time curves), minimum observed plasma concentration of seletalisib at steady-state immediately before the next dose would be administered (Ctrough), apparent terminal half-life, apparent volume of distribution after single dosing (Vz/F) and at steady-state (Vzss/F) and apparent total body clearance after single dosing (CL/F) and at steady-state (CLss/F). Accumulation factor based on AUC(0–24) [R(AUC)] and accumulation factor based on Cmax [R(Cmax)] were determined on multiple dose day 14. The following study-specific PK parameters were also determined: Study-1, total amount of seletalisib excreted in urine (Ae), renal clearance (CLr) and fraction of drug excreted in urine; Study-2, AUC(0–10) in BID dose groups, terminal elimination rate constant in plasma (λz), mean residence time (MRT) and linearity factor (LF [AUC(0–24)ss/AUC]).
Methods for the calculation of seletalisib PK parameters are detailed in Online Resource S1.
Seletalisib PK parameters were calculated via non-compartmental analysis methods from the individual concentration-time data using Phoenix WinNonlin version 6.2 (Certara, Princeton, NJ, USA). Urine (Study-1 only) and plasma PK parameters of seletalisib were reported for each subject and summarised by study part and dose group. Geometric mean and percentage geometric coefficient of variation (GeoCV%) were reported for all parameters except for tmax, which was reported using median and range. Dose proportionality for AUC and Cmax at Day_1 (Study-1 [Part-A & Part-B]; Study-2, single ascending dose-Day_1) and at steady state at Day_14 (Study-1 [Part-B]; Study-2, multiple ascending dose-Day_14) was examined via the power model and reported graphically. In Study-1, an assessment of food effect (fed versus fasted) was made for Cmax and AUC from the data for subjects who received the same dose in fed and fasted states in Part-A.

[1] = Study-1 Part-A, single dose 1 mg fasted, geo mean (GeoCV%)
[2] = Study-1 Part-A, single dose 5 mg fasted, geo mean (GeoCV%)
[3] = Study-1 Part-A, single dose 5 mg fed, geo mean (GeoCV%)
[4] = Study-1 Part-A, single dose 10 mg fasted, geo mean (GeoCV%)
[5] = Study-1 Part-A, single dose 15 mg fasted, geo mean (GeoCV%)
[6] = 1 mg, Study-1 Part-A, single dose 1 mg fasted, geo mean (GeoCV%)
[7] = 5 mg, Study-1 Part-A, single dose 5 mg fasted, geo mean (GeoCV%)
[8] = 5 mg, Study-1 Part-A, single dose 5 mg fed, geo mean (GeoCV%)
[9] = 10 mg, Study-1 Part-A, single dose 10 mg fasted, geo mean (GeoCV%)
[10] = 15 mg, Study-1 Part-A, single dose 15 mg fasted, geo mean (GeoCV%)

Compound: [O-][n+]1cccc(-c2nc3c(Cl)cccc3cc2[C@@H](Nc2ncnc3cccnc23)C(F)(F)F)c1 [Seletalisib, seletalisib]
- food effect (Study-1 Part-A, 5 mg fed (high-fat, high-calorie meal) vs fasted): No clinically significant food effect
- geometric mean fraction of drug excreted in urine (Study-1 Part-A, parent drug, across dose groups): < 6%
- CL/F [1]: 1.93 (33.4) L/h
- CL/F [2]: 2.19 (34.3) L/h
- CL/F [3]: 1.87 (44.6) L/h
- CL/F [4]: 1.93 (17.3) L/h
- CL/F [5]: 1.93 (25.4) L/h
- Fe [1]: 5.79 (56.6) %
- Fe [2]: 5.37 (35.3) %
- Fe [3]: 4.81 (49.6) %
- Fe [4]: 4.76 (66.0) %
- Fe [5]: 4.59 (33.6) %
- AUC [6]: 518 ng·h/mL
- AUC(0-t) [6]: 473 ng·h/mL
- Cmax [6]: 26.7 ng/mL
- Vd/F [6]: 51.5 L
- half-life (1 mg, Study-1 Part-A, single dose 1 mg fasted, geo mean (GeoCV%), read-out: t1/2 (converted)): 1110 min
- Tmax (1 mg, Study-1 Part-A, single dose 1 mg fasted, median (range), read-out: tmax): 1.77 h
- AUC [7]: 2290 ng·h/mL
- AUC(0-t) [7]: 2100 ng·h/mL
- Cmax [7]: 109 ng/mL
- Vd/F [7]: 59.2 L
- half-life (5 mg, Study-1 Part-A, single dose 5 mg fasted, geo mean (GeoCV%), read-out: t1/2 (converted)): 1130 min
- Tmax (5 mg, Study-1 Part-A, single dose 5 mg fasted, median (range), read-out: tmax): 2.01 h
- AUC [8]: 2680 ng·h/mL
- AUC(0-t) [8]: 2480 ng·h/mL
- Cmax [8]: 105 ng/mL
- Vd/F [8]: 47.6 L
- half-life (5 mg, Study-1 Part-A, single dose 5 mg fed, geo mean (GeoCV%), read-out: t1/2 (converted)): 1060 min
- Tmax (5 mg, Study-1 Part-A, single dose 5 mg fed, median (range), read-out: tmax): 4 h
- AUC [9]: 5170 ng·h/mL
- AUC(0-t) [9]: 4800 ng·h/mL
- Cmax [9]: 279 ng/mL
- Vd/F [9]: 54 L
- half-life (10 mg, Study-1 Part-A, single dose 10 mg fasted, geo mean (GeoCV%), read-out: t1/2 (converted)): 1160 min
- Tmax (10 mg, Study-1 Part-A, single dose 10 mg fasted, median (range), read-out: tmax): 1.77 h
- AUC [10]: 7760 ng·h/mL
- AUC(0-t) [10]: 7000 ng·h/mL
- Cmax [10]: 313 ng/mL
- Vd/F [10]: 58.7 L
- half-life (15 mg, Study-1 Part-A, single dose 15 mg fasted, geo mean (GeoCV%), read-out: t1/2 (converted)): 1270 min
- Tmax (15 mg, Study-1 Part-A, single dose 15 mg fasted, median (range), read-out: tmax): 3 h
- half-life (Study-1, range across dose groups, read-out: geometric mean t1/2): 1060 to 1270 min
- Tmax (Study-1 Part-A, single dose, range across fasted treatment groups, read-out: median tmax): 1.8 to 3 h
- CL renal [6]: 1.87 mL/min
- CL renal [7]: 1.95 mL/min
- CL renal [8]: 1.5 mL/min
- CL renal [9]: 1.53 mL/min
- CL renal [10]: 1.48 mL/min
- Ae(0–t) [1]: 0.058 (56.6) mg
- Ae(0–t) [2]: 0.269 (35.3) mg
- Ae(0–t) [3]: 0.241 (49.6) mg
- Ae(0–t) [4]: 0.476 (66.0) mg
- Ae(0–t) [5]: 0.689 (33.6) mg
